In ChEMBL document CHEMBL4033674, “Bivalent O-glycoside mimetics with S/disulfide/Se substitutions and aromatic core: Synthesis, molecular modeling and inhibitory activity on biomedically relevant lectins in assays of increasing physiological relevance” (Bioorg Med Chem, 2017):
pIC50: −log10 of the molar value. Calls of active or inactive are those of the source. The calls are words filed in the database; no cut-off is given here.

What was measured:
[1] = molecular target: Galectin-3 (Mus musculus, UniProt P16110); assay: Inhibition of galectin-3 in C57BL/6 mouse jejunum using SK-5100 as substrate incubated for 30 mins by VAA staining based microscopic analysis
Chain of Galectin-3 (P16110 whole entry): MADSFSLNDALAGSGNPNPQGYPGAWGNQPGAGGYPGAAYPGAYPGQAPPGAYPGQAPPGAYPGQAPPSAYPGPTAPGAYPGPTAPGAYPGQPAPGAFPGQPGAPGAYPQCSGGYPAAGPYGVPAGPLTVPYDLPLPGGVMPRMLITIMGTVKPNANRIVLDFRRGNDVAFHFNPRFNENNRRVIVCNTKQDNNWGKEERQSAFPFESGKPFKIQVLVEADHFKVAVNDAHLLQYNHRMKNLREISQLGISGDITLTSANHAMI

[2] = molecular target: Galectin-1 (Homo sapiens) (UniProt P09382); assay: Inhibition of biotinylated proto type galectin-1 in human Capan-1 cells after 30 mins by FACS analysis relative to control; format: cell-based
Chain of Galectin-1 (Homo sapiens) (P09382 whole entry): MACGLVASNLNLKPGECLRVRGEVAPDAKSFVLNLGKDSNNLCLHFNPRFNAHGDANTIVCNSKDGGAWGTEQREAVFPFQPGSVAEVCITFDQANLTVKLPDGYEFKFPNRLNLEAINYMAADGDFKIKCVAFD

[3] = molecular target: T1, Galectin-8 (Mus musculus) (UniProt Q9JL15); assay: Inhibition of galectin-8 in C57BL/6 mouse jejunum using SK-5100 as substrate incubated for 30 mins by VAA staining based microscopic analysis relative to free lactose
T1 sequence (whole entry): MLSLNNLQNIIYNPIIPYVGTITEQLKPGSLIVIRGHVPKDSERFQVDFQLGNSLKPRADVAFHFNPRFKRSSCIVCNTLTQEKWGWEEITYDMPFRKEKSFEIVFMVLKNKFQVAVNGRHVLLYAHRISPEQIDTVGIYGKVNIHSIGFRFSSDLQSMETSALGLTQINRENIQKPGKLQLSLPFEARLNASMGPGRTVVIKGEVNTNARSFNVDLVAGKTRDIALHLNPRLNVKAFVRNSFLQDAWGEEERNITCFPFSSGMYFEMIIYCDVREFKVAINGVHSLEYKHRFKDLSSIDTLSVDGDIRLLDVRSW

[4] = molecular target: Galectin-3 (Homo sapiens) (UniProt P17931); assay: Inhibition of biotinylated chimera type galectin-3 in human Capan-1 cells after 30 mins by FACS analysis relative to control; format: cell-based
Chain of Galectin-3 (Homo sapiens) (P17931 whole entry): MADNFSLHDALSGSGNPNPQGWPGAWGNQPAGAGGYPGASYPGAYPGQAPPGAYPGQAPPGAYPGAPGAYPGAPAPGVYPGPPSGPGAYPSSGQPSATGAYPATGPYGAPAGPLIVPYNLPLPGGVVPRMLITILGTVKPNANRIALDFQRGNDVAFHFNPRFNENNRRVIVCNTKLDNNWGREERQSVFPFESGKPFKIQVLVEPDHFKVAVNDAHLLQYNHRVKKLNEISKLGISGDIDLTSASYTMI

[5] = molecular target: T2, Galectin-8 (Homo sapiens) (UniProt O00214); assay: Inhibition of biotinylated tandem repeat type galectin-8 in human Capan-1 cells after 30 mins by FACS analysis relative to control; format: cell-based
T2 sequence (whole entry): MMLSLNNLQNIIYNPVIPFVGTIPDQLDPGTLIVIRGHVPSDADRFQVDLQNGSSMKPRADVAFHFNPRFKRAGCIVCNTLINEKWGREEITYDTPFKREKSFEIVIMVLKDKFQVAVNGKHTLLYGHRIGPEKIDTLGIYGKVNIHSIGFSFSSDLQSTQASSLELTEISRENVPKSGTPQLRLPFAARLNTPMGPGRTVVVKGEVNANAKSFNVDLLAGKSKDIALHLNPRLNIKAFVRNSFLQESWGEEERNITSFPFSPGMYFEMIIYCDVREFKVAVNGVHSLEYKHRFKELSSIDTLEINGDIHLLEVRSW

[6] = molecular target: Galectin-1 (Mus musculus) (UniProt P16045); assay: Inhibition of galectin-1 in C57BL/6 mouse jejunum using SK-5100 as substrate incubated for 30 mins by VAA staining based microscopic analysis relative to free lactose
Chain of Galectin-1 (Mus musculus) (P16045 whole entry): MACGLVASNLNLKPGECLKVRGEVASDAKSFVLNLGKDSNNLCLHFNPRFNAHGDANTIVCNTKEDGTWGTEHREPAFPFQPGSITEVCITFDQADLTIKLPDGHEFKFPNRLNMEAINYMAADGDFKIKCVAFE

[7] = Inhibition of lectin in C57BL/6 mouse kidney using SK-5100 as substrate incubated for 30 mins by VAA staining based microscopic analysis

SMILES | fold change (FC) [2] | fold change (FC) [4] | fold change (FC) [5] | other results
OC[C@H]1O[C@@H](O[C@H]2[C@H](O)[C@@H](O)[C@H](SSCc3ccc(CSS[C@@H]4O[C@H](CO)[C@@H](O[C@@H]5O[C@H](CO)[C@H](O)[C@H](O)[C@H]5O)[C@H](O)[C@H]4O)c4ccccc34)O[C@@H]2CO)[C@H](O)[C@@H](O)[C@H]1O | – | – | – | pIC50 [1]: 4.60; inhibition [2]: Active; fold change (FC) [3]: 100; inhibition [4]: Active; inhibition [5]: Active; fold change (FC) [6]: 6
OC[C@H]1O[C@@H](SSCc2cccc3c(CSS[C@@H]4O[C@H](CO)[C@H](O)[C@H](O)[C@H]4O)cccc23)[C@H](O)[C@@H](O)[C@H]1O | 2.5 to 10 | 2.5 to 10 | 2.5 to 10 | –
OC[C@H]1O[C@@H]([Se]Cc2ccc(C[Se][C@@H]3O[C@H](CO)[C@H](O)[C@H](O)[C@H]3O)c3ccccc23)[C@H](O)[C@@H](O)[C@H]1O | 2.5 to 10 | 2.5 to 10 | 2.5 to 10 | –
OC[C@H]1O[C@@H]([Se]Cc2cccc3c(C[Se][C@@H]4O[C@H](CO)[C@H](O)[C@H](O)[C@H]4O)cccc23)[C@H](O)[C@@H](O)[C@H]1O | 2.5 to 10 | 2.5 to 10 | 2.5 to 10 | –
O=C[C@H](O)[C@@H](O)[C@@H](O)[C@H](O)CO [GALACTOSE] | – | – | – | pIC50 [7]: 2.30
OC[C@H]1O[C@@H](SCc2ccc(CS[C@@H]3O[C@H](CO)[C@H](O)[C@H](O)[C@H]3O)c3ccccc23)[C@H](O)[C@@H](O)[C@H]1O | 2.5 to 10 | 2.5 to 10 | 2.5 to 10 | –
OC[C@H]1O[C@@H](SSCc2ccc(CSS[C@@H]3O[C@H](CO)[C@H](O)[C@H](O)[C@H]3O)c3ccccc23)[C@H](O)[C@@H](O)[C@H]1O | 2.5 to 10 | 2.5 to 10 | 2.5 to 10 | pIC50 [7]: 3.00 to 3.30
OC[C@H]1O[C@@H](O[C@H]2[C@H](O)[C@@H](O)[C@H](SCc3ccc(CS[C@@H]4O[C@H](CO)[C@@H](O[C@@H]5O[C@H](CO)[C@H](O)[C@H](O)[C@H]5O)[C@H](O)[C@H]4O)c4ccccc34)O[C@@H]2CO)[C@H](O)[C@@H](O)[C@H]1O | – | – | – | pIC50 [1]: 4.30; inhibition [2]: inactive; fold change (FC) [3]: 50; inhibition [4]: inactive; inhibition [5]: inactive

Second part, led by results:

fold change (FC) [2] | fold change (FC) [4] | fold change (FC) [5] | SMILES | other results
2.5 to 10 | 2.5 to 10 | 2.5 to 10 | OC[C@H]1O[C@@H]([Se]Cc2ccc3cc(C[Se][C@@H]4O[C@H](CO)[C@H](O)[C@H](O)[C@H]4O)ccc3c2)[C@H](O)[C@@H](O)[C@H]1O | pIC50 [7]: 3.00 to 3.30
2.5 to 10 | 2.5 to 10 | 2.5 to 10 | OC[C@H]1O[C@@H]([Se]Cc2ccc(C[Se][C@@H]3O[C@H](CO)[C@H](O)[C@H](O)[C@H]3O)cc2)[C@H](O)[C@@H](O)[C@H]1O | –
2.5 to 10 | 2.5 to 10 | 2.5 to 10 | OC[C@H]1O[C@@H]([Se]Cc2cccc(C[Se][C@@H]3O[C@H](CO)[C@H](O)[C@H](O)[C@H]3O)c2)[C@H](O)[C@@H](O)[C@H]1O | –
